Assay results: paper PMC9594047, “Identification of the Allosteric Binding Site for Thiazolopyrimidine on the C-Type Lectin Langerin” (ACS Chemical Biology, 2022)
Numbering of substitutions follows the chain as printed. Where a SMILES comes first, the peptide text is derived from it.

Key:
[1] = target: T1, murine Langerin (mLang) CRD wild type (Mus musculus, UniProt Q8VBX4); assay: 1H-15N HSQC NMR titration, mLang CRD wild type; format: binding; details: from CSP trajectories, 298 K; for Kd: pH 6, read-out: 15N HSQC KD mLang (Murine-WT); for 15N HSQC KD mLang (Murine-WT): pH 6
T1 construct: 194 - 331, were cloned from a codon-optimized Langerin gene; His-tag (N); made in house; host or cells: E. coli BL21
T1 sequence (Q8VBX4 194-331): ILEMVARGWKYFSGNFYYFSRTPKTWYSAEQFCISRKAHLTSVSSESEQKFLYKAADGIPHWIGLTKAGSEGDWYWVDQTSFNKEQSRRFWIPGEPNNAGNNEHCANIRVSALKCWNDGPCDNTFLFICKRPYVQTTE
Experimental: (§1) Protein expression and purification hLang and mLang CRD wild type and all the mutants, ranging from amino acids 193 - 328 and 194 - 331, were cloned from a codon-optimized Langerin gene for bacterial expression (GenScript, Piscataway, NJ, USA) into a pET-28a vector (GenScript, Piscataway, NJ, USA) carrying an N-terminal His-tag and a T7 promoter. All constructs were expressed in E. coli BL21 (ThermoFisher Scientific, Waltham, MA, USA) in LB medium or in M9 medium at 37 °C. Protein expression was induced by adding 1 mM IPTG (isopropyl β-D-1-thiogalactopyranoside) at an OD600 between 0.7 - 1 and were grown overnight at 37 °C. Bacteria were harvested by centrifugation at 4000 g for 30 mins. Cells were lysed in lysis buffer (50 mM Tris, 150 mM NaCl, 10 mM MgCl2, 0.1% Tween-20, pH 8) with 1 mg/mL lysozyme (Sigma Aldrich, St. Louis, MO, USA) and 100 μg/mL DNase I (Applichem, Darmstadt, Germany) for at least 3 h at room temperature or 4 °C overnight or sonicated 1 h with amplitude 55%. Inclusion bodies were harvested by centrifugation at 15000 g […]
(§2) Inclusion bodies were washed twice with lysis buffer and ultrapure water to remove cell debris and soluble proteins. Then inclusion bodies were denatured with 20 mL of denaturation buffer (6 M guanidinium hydrochloride in 100 mM Tris (pH 8)) with 0.01% β -mercaptoethanol for at least 1 h at 37 °C, shaking at 220 rpm. The supernatant was slowly diluted 1:10 with CTL refolding buffer (0.4 M L-arginine in 50 mM Tris, 20 mM NaCl, 0.8 mM KCl, pH 8.3) with 1 mM reduced glutathione (GSH) and 0.1 mM oxidized glutathion e (GSSG) while stirring at 4 °C for at least 48 h after centrifugation (15,000 x g, 90 min, 4 °C). The refolded protein solution was dialyzed against 5 L TBS buffer (50 mM Tris, 150 mM NaCl, 5 mM CaCl 2) and then centrifuged to remove precipitated protein (15,000 x g, 90 min, 4 °C). The supernatant was purified by Ni -NTA agarose […]
(§3) affinity chromatography (Thermo Fisher) and the fractions of the elution were pooled and dialyzed against MES buffer (25 mM MES, 40 mM NaCl, 5 mM CaCl2, pH 6). Precipitated protein was removed by centrifugation (15,000 x g, 90 min, 4 °C) and the supernatant was used for experiments. We then concentrated protein with 5 - 6 mg/mL as the final concentration.
(§4) 1H-15N HSQC NMR measurements and backbone resonance assignment
(§5) NMR assignment and 15N-HSQC NMR for CSP plot and KD calculations were performed on a 700 MHz Bruker Advance III spectrometer (Bruker, Billerica, MA, USA) equipped with a PRODIGY probe. For mLang CRD backbone assignment, we performed a series of standard triple resonance experiments HNCA, HNCACB, HN(CO)CA and HN(CO)CACB as Hanske et al. described.1 Data was analyzed by using CcpNmr 2.5.1.2 In total, 88% of the residues were unambiguously assigned.
(§6) Most of the unassigned residues are prolines or residues in the mobile loops near the CBS, as reported for similar protein for example human Langerin.1 For the sample preparation, we used 300 µM 15N and 13C labeled protein, which is in 25 mM MES, 40 mM NaCl, 5 mM CaCl2, pH 6 containing 100 μM DSS, 0.05% NaN3, and 10% D2O buffer. 1H–15N HSQC NMR titrations experiments were performed with 100 μM of Langerin CRD containing 50 μM 4,4-dimethyl-4-silapentane-1-sulfonic acid (DSS) as an internal reference, and 10% D2O. 128 increments and 4 - 16 transients were recorded at 298 K, depending on the protein concentration and the machine implemented. NMR titration data were processed and analyzed, as previously done in Hanske et al. described (2016).1 The protein sample was added stepwise for titration of the thiazolopyrimidine derivatives or peptides until the most solubility tolerance was reached as the final concentration. Step size according to expected KD varied.

[2] = target: T2, human Langerin (hLang) CRD wild type (Homo sapiens, UniProt Q9UJ71); assay: 1H-15N HSQC NMR titration, hLang CRD wild type; format: binding; details: for Kd / 15N HSQC KD hLang (Human-WT): hLang CRD wild type, from CSP trajectories, 298 K, pH 6; for Kd: read-out: 15N HSQC KD hLang (Human-WT)
T2 construct: ranging from amino acids 193 - 328 and; His-tag (N); made in house; host or cells: E. coli BL21
T2 sequence (Q9UJ71 193-328): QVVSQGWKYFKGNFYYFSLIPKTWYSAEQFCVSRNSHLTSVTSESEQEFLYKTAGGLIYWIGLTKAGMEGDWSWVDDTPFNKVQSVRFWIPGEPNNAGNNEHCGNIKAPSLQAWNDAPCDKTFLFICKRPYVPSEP
Experimental: as §1, §2, §3, §4, §5, §6

hLang M260S-S265Y = target: T3, hLang M260S-S265Y (Homo sapiens, UniProt Q9UJ71, M260S/S265Y); assay: 1H-15N HSQC NMR titration, hLang CRD double mutant; format: binding; details: for Kd: hLang CRD M260S-S265Y mutant
T3 construct: ranging from amino acids 193 - 328 and; His-tag (N); made in house; host or cells: E. coli BL21
T3 sequence (Q9UJ71 193-328 M260S/S265Y): as the sequence (Q9UJ71 193-328) above, with M68S, S73Y counted along it
Experimental: as §1
Inclusion bodies were washed twice with lysis buffer and ultrapure water to remove cell debris and soluble proteins. […]
as §5
Most of the unassigned residues are prolines or residues in the mobile loops near the CBS, as reported for similar protein for example human Langerin.1 For the sample preparation, we used 300 µM 15N and 13C labeled protein, which is in 25 mM MES, 40 mM NaCl, 5 mM CaCl2, pH 6 containing 100 μM DSS, 0.05% NaN3, and 10% D2O buffer. […] 128 increments and 4 - 16 transients were recorded at 298 K, depending on the protein concentration and the machine implemented. […]

mLang S263M-Y268S = target: T4, mLang S263M-Y268S (Mus musculus, UniProt Q8VBX4, S263M/Y268S); assay: 1H-15N HSQC NMR titration, mLang CRD double mutant; format: binding, murine; details: for Kd: mLang CRD S263M-Y268S mutant, read-out: 15N HSQC KD Murine-S263M-Y268S
T4 construct: 194 - 331, were cloned from a codon-optimized Langerin gene; His-tag (N); made in house; host or cells: E. coli BL21
T4 sequence (Q8VBX4 194-331 S263M/Y268S): T1 sequence (Q8VBX4 194-331) with S70M, Y75S
Experimental: as §1
Inclusion bodies were washed twice with lysis buffer and ultrapure water to remove cell debris and soluble proteins. Then inclusion bodies were denatured with 20 mL of denaturation buffer (6 M guanidinium hydrochloride in 100 mM Tris (pH 8)) with 0.01% β -mercaptoethanol for at least 1 h at 37 °C, shaking at 220 rpm. […]
as §5
as §6, with “1H–15N HSQC NMR titrations experiments were performed with 100 μM of Langerin CRD containing 50 μM 4,4-dimethyl-4-silapentane-1-sulfonic acid (DSS) as an internal reference, and 10% D2O.” left out, “Step size according to expected KD varied.” left out

| SMILES | Kd [1] [µM] | Kd [2] [µM] | 15N HSQC KD mLang (Murine-WT) [1] | 15N HSQC KD hLang (Human-WT) [2] | also measured |
| --- | --- | --- | --- | --- | --- |
| C[C@H](N)C(=O)N[C@@H](Cc1c[nH]c2ccccc12)C(=O)N[C@@H](CO)C(=O)O [AWS] (H-Ala-Trp-Ser-OH) | 1600 ± 300 | 2400 ± 940 |  |  |  |
| Cc1csc2ncc(C(=O)O)c(=O)n12 [Compound 5] | 610 ± 110 |  | micromolar affinity | no detectable binding and nb |  |
| Cc1sc2ncc(C(=O)O)c(=O)n2c1C [Compound 4] | 400 ± 140 | 900 ± 300 |  |  |  |
| N[C@@H](CO)C(=O)N[C@@H](CO)C(=O)N[C@@H](Cc1c[nH]c2ccccc12)C(=O)N[C@@H](CO)C(=O)O [SSWS] (H-SSWS-OH) | 460 ± 30 |  |  |  |  |
| C[C@H](NC(=O)[C@@H](N)CO)C(=O)N[C@@H](Cc1c[nH]c2ccccc12)C(=O)N[C@@H](CO)C(=O)O [SAWS] (H-SAWS-OH) | 670 ± 230 | 820 ± 130 | high-micromolar affinity | high-micromolar affinity |  |
| COc1ccccc1CNC(=O)c1cnc2sccn2c1=O [Compound 2] | 160 ± 60 |  | micromolar affinity | not detectable and no detectable binding and nb | Kd (hLang M260S-S265Y): 450 ± 280 µM; Kd (mLang S263M-Y268S): 1740 ± 160 µM; fold decrease in binding affinity to mLang S263M-Y268S compared to WT (mLang S263M-Y268S; mutant vs WT): 10 fold |

More lines, main results first:

| Kd [1] [µM] | Kd [2] [µM] | 15N HSQC KD mLang (Murine-WT) [1] | 15N HSQC KD hLang (Human-WT) [2] | SMILES | also measured |
| --- | --- | --- | --- | --- | --- |
| 1140 ± 60 | 110 ± 40 |  |  | O=C(NCCc1cn2c(n1)SCC2)c1cnc2sccn2c1=O [Compound 3] |  |
| 280 ± 160 |  | micromolar affinity | no detectable binding and nb | O=C(NCc1ccc2c(c1)OCO2)c1c(O)nc2sccn2c1=O [Compound 7] |  |
| 230 ± 60 |  | micromolar affinity | no detectable binding and nb | COc1cc2c(cc1OC)CC(NC(=O)c1cnc3sccn3c1=O)C2 [Compound 6] |  |
| 1800 ± 600 | 130 ± 40 |  |  | O=C(O)c1cnc2sccn2c1=O [Compound 1] | Kd (hLang M260S-S265Y): 340 ± 220 µM; fold decrease in affinity to hLang M260S-S265Y compared to WT (hLang M260S-S265Y; mutant vs WT): 3 fold; Kd (mLang S263M-Y268S): 480 ± 340 µM; fold increase in affinity for mLang S263M-Y268S compared to WT (mLang S263M-Y268S; mutant vs WT): 3 fold; fold higher affinity for hLang compared to mLang ([2]; hLang vs mLang wild type): more than 10 fold |
